“And” between values parts separate entries of the source, which are not always exact repeats. Equal entries are not always repeated. Where two headings read alike, the source gives them in different places.
Key:
[1] = Flowability of blend material with excipients; assay type: physicochemical; details: for Flowability (s/100 g): blend material of API with excipients of Table 3; for Flow properties of blend: blend material of API with excipients
Protocol: The spherical agglomerates of timapiprant or the micronized timapiprant, together with the microcrystalline cellulose, the croscarmellose sodium, the poloxamer, the sodium lauryl sulphate and the colloidal silicon dioxide in the above amounts, are sieved in a sieve of 1.2 mm. The lactose monohydrate is then added, and the resulting mixture is blended in a free fall blender for at least 15 minutes. The magnesium stearate is added to the obtained mixture which is further blended in the free fall blender for additional 3 minutes.

[2] = Primary particle size distribution by laser diffraction after break up of spherical agglomerates; assay type: physicochemical; details: primary particles; for PSD d (0.1), Mean result / PSD d (0.5), Mean result: mean of 10 acquisitions
Protocol: The primary particle size distribution results are produced by means of a Malvern 2000 laser diffraction equipment by the analysis of the primary particles in suspension.
The particle size distribution laser diffraction measures were performed using a Malvern Mastersizer 2000 equipped with a Hydro 2000S cell for the wet suspension of the Timapiprant primary particles. The spherical agglomerates obtained according to the Examples 3 and 5, were dispersed in water by means of 10 minutes sonication and then added to the cell, previously filled with water, until an obscuration within 5-10% was obtained. The stirring rate was set at 1500 rpm and each of the suspensions produced were analysed by 10 acquisitions, the results are reported in Tables 1 and 2.

[3] = Specific surface area (SSA) by BET nitrogen adsorption; assay type: physicochemical
Protocol: The specific surface areas (SSA) of spherical agglomerates of timapiprant obtained according to Examples 3, 5,7 and the micronized timapiprant were measured was determined by BET nitrogen adsorption using the TriStar of Micromeritics apparatus according to following parameters: • Isotherm, Adsorbing/Desorbing Run: 0 to 1 p/p0 • Vials: ⅜ Inch, Degasing Pre-analysis: 2 hours at 40° C., Nitrogen as adsorbate • Preparation: Evacuation Rate 10 mmHg/s; Unrestricted evacuation from 5 mmHg • Vacuum setpoint: 10 mmHg, Evacuation time: 1 hour • Leak Test Duration: 120 s, Outgas Test Duration: 180 s • Measure p0 at intervals during the analysis, Enter the analysis bath temperature: […]77 kelvin • Equilibration Interval: 5 s; Minimum Equilibration Delay at p/p0>=0.995 per 600 s.

[4] = target: T1, prostaglandin D2 receptor (CRTH2) (Homo sapiens, UniProt Q9Y5Y4); details: cited from earlier work
T1 sequence (Q9Y5Y4 1-395): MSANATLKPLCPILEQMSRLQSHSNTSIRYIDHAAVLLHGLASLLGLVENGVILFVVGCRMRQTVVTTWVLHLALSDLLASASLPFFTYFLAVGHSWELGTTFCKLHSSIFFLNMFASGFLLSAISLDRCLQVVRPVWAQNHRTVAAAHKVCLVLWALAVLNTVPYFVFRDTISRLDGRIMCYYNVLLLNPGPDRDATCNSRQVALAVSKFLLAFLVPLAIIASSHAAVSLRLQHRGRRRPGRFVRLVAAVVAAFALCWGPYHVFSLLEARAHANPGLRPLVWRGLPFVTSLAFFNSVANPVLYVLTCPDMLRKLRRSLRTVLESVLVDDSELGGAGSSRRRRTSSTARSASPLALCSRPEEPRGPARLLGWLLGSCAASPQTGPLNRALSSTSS

[5] = test system: patients with atopic eosinophilic asthma; details: cited from earlier work
[6] = test system: human Th2 lymphocytes and eosinophils; details: cited from earlier work
[7] = agglomerates dispersed in water by 10 minutes sonication, single acquisition

## Cc1c(Cc2ccc3ccccc3n2)c2cc(F)ccc2n1CC(=O)O [Example 5, (5-fluoro-2-methyl-3-quinolin-2-yl-methyl-indol-1-yl)acetic acid]
[1]; listed as Spherical agglomerates of timapirpant
  Flowability (s/100 g): 4 sec s/100 g
[1]; listed as spherical agglomerates of timapiprant
  Flow properties of blend: good flowability
[2]; [7]
  PSD d (0.5): 0.64 μm
[2]
  PSD d (0.1), Mean result: 0.31 μm
  PSD d (0.5), Mean result: 0.64 μm
[3]; listed as Spherical agglomerates of timapiprant of Example 5
  SSA (m^2/g): 10.1 m^2/g

## Cc1c(Cc2ccc3ccccc3n2)c2cc(F)ccc2n1CC(=O)O [Example 7, (5-fluoro-2-methyl-3-quinolin-2-yl-methyl-indol-1-yl)acetic acid]
[3]; listed as Spherical agglomerates of timapiprant of Example 7
  SSA (m^2/g): 15.5 m^2/g

## Cc1c(Cc2ccc3ccccc3n2)c2cc(F)ccc2n1CC(=O)O [timapiprant]
[4]
  CRTH2 antagonist activity: potent, selective, and orally active prostaglandin D2 receptor (CRTH2) antagonist
[5]
  Clinical efficacy: effective in reducing airway inflammation and improving lung function and quality of life
[6]
  Inhibition of mast cell-dependent activation: inhibits mast cell-dependent activation of both human Th2 lymphocytes and eosinophils

## Cc1c(Cc2ccc3ccccc3n2)c2cc(F)ccc2n1CC(=O)O [Example 3, (5-fluoro-2-methyl-3-quinolin-2-yl-methyl-indol-1-yl)acetic acid]
[2]; [7]
  PSD d (0.1): 0.28 μm
  PSD d (0.5): 0.56 μm
[2]
  PSD d (0.1), Mean result: 0.28 μm
  PSD d (0.5), Mean result: 0.56 μm
[3]; listed as Spherical agglomerates of timapiprant of Example 3
  SSA (m^2/g): 13.1 m^2/g

## Cc1c(Cc2ccc3ccccc3n2)c2cc(F)ccc2n1CC(=O)O [Micronized Timapiprant, reference compound]
[1]
  Flow properties of blend: very poor flow properties
  Flowability (s/100 g): ∞
[3]
  SSA (m^2/g): 8.0 m^2/g and 7.8 m^2/g
[3]; listed as micronized timapiprant
  SSA (m^2/g): less than 8.5 m^2/g
